Data set [1] can be described thus: In vitro dissolution test (USP apparatus II). The data set is classed as physicochemical. The following applies: 300 mL, 37 °C, 50 rpm, 150 mg OLA equivalent. As for the experimental part:
To assess the in vitro release of OLA from the solid dispersions, a dissolution test was performed under conditions similar to those described in Section 2.3. Briefly, the dissolution media were adjusted to pH 1.2 and pH 6.8 (300 mL each), with the temperature maintained at 37 ± 0.5 °C, and the test was conducted at a paddle speed of 50 rpm. Each sample of the OLA-SD, equivalent to 150 mg of OLA, was immersed in the dissolution media. Additionally, to examine the effect of polymers in the solid dispersion, a parallel dissolution test was conducted with 150 mg each of crystalline OLA and amorphous OLA. As mentioned, the solution was sampled at predetermined times (1, 6, 12, 18, 24, 48, and 72 h) and the concentration of OLA was assessed using an HPLC system. Additionally, after the kinetic dissolution tests in the pH 1.2 solution, the solution was centrifuged, the supernatant was removed, and the remaining OLA-SD residue was dried overnight for 12 h. The crystallinity state of the dried OLA-SD was examined using an X-ray diffractometer. The detailed method is described in Section 2.6.3.

The nature of data set [2]: Saturation solubility of OLA in aqueous solutions. The data set is classed as physicochemical. The following applies: pH 1.2, pH 4.0, pH 6.8, regardless of pH, 37 °C. On the procedure: The solubility of OLA was evaluated in distilled water (D.W.), pH 1.2, pH 4.0, and pH 6.8 solutions. The pH 1.2 solution was prepared using 0.1 M hydrochloric acid and sodium chloride, while the pH 4.0 solution utilized a 0.05 M sodium acetate buffer solution, and the pH 6.8 solution was made by combining a 0.2 M potassium dihydrogen phosphate solution with a 0.2 M sodium hydroxide solution. To determine the saturation solubility, an excess amount of both crystalline OLA and amorphous OLA, totaling 10 mg each, was added to 1 mL of each solution. The mixtures were vortexed for 10 min and then shaken at 100 rpm in a 37 °C water bath for 72 h. After centrifugation at 13,500 rpm for 10 min, the supernatant was filtered through a 0.45 μm syringe filter to remove insoluble OLA. The resultant solution was diluted tenfold with the HPLC mobile phase, and the concentration of OLA in each solution was measured using the HPLC system mentioned in Section 2.2. Subsequently, to assess the kinetic solubility of OLA, a dissolution test was conducted using 150 mg of both crystalline and amorphous OLA in 900 mL of each aforementioned solution. […] Samples (3 mL) were taken at predetermined times (0.5, 1, 2, 3, 4, 6, 12 h), filtered through a 0.45 μm syringe filter, diluted tenfold with the HPLC mobile phase, and analyzed using the same HPLC system. […]

Data set [3] is described as follows: Kinetic solubility of OLA in 1% (w/v) polymer solutions. To be noted: thermodynamic from solid, amorphous OLA. It counts as physicochemical. As for the experimental part: (§1) The polymers used to select the appropriate polymer for OLA-SD were chosen from those widely utilized in solid dispersions. To select the polymers for the solid dispersion system, the solubility of OLA in 1% (w/v) polymer solutions was assessed. Initially, 10 mg of crystalline OLA was added to 1 mL of each polymer solution, vortexed for 10 min, and then shaken at 100 rpm in a 37 °C water bath for 72 h. This process followed the saturation solubility evaluation method described in Section 2.3. Subsequently, to evaluate the kinetic solubility of OLA, both crystalline and amorphous forms, totaling 10 mg, were added to 10 mL of the selected polymer solutions, based on the results of the OLA saturation solubility tests. After vortexing for 10 min, the samples were shaken under the same conditions. During this 72 h period, samples were collected at predetermined intervals of 1, 6, 12, 24, 48, and 72 h, and the concentration of OLA was measured through HPLC analysis.

A short description of data set [4]: In vivo pharmacokinetic study after oral administration. Also noted: species or system Sprague Dawley (SD) rats. The following applies: rats, 20 mg/kg; for AUC(0-t): read-out: AUC0–24. On the procedure: Male Sprague Dawley (SD) rats (age: 9–10 weeks, weight: 250 ± 20 g) for the in vivo pharmacokinetic study of OLA-SD were purchased from Koatech Co. (Pyeongtaek, Republic of Korea). The rats were acclimatized to standard laboratory conditions (average temperature of 25 ± 2 °C and a 12/12 h light/dark cycle) for one week before the experiment, with unrestricted access to food and drinking water ad libitum. The Institutional Animal Care and Use Committee (IACUC) of Gyeongsang National University (Approval No. GNU-240228-R0049) approved the animal study protocol in accordance with NIH policies and the Animal Welfare Act. The SD rats were randomly divided into four groups, each consisting of six rats. Each rat was anesthetized, and the right femoral artery was cannulated using a polyethylene tube. Crystalline OLA, amorphous OLA, Kollidon VA64-based OLA-SD (F1), and HPMC P645-based OLA-SD (F3) were dispersed in 1 mL of 0.5% carboxymethyl cellulose and administered orally to the rats at a dose of 20 mg/kg. Blood (350 μL) was collected through the cannulated tube at 0.25, 0.5, 1, 2, 3, 6, 9, 12, and 24 h and immediately centrifuged at 13,500 rpm for 15 min at 4 °C. Subsequently, plasma was separated from the supernatant and stored at −20 °C until quantitative analysis. To analyze the plasma samples, 50 μL of internal standard solution (canagliflozin 20 μg/mL in acetonitrile) and 300 μL of acetonitrile were added to 150 μL of plasma. The samples were then mixed in a vortex blender for 3 min for deproteinization and drug extraction. Subsequently, the samples were centrifuged at 13,500 rpm for 15 min at 4 °C. The supernatant was filtered using a 0.2 μm filter and transferred to analytical vials for HPLC analysis. The concentration of OLA in plasma was analyzed using the second HPLC conditions mentioned in Section 2.2. Pharmacokinetic parameters calculated using non-compartmental analysis included the area under the plasma concentration–time curve from 0 to 24 h (AUC0–24), the maximum plasma concentration (Cmax), the time to reach maximum plasma concentration (Tmax), the elimination rate constant (Kel), the half-life (T1/2), and the mean residence time (MRT).
The formula for calculating AUC is as follows: AUC=∑i=1n−1(Ci+Ci+1)/2×[…] where Ci and Ci+1 are the concentration of the drug at consecutive time points, ti and ti+1 are the corresponding time points, and n is the number of measured data points.
The formula for calculating Cmax is as follows: Cmax=max(Ct) where Ct is the concentration of the drug at time t.
The formula for calculating Tmax is Tmax=t at which Ct is maximal
The formula for calculating Kel is […] where C1 and C2 are the concentration of the drug at two consecutive time points during the elimination phase, and t1 and t2 are the corresponding time points.
The formula for calculating T1/2 is T1/2=ln2/Kel where Kel is the elimination rate constant.
The formula for calculating MRT is MRT=AUMC/AUC where AUMC is the area under the moment curve and AUC is the area under the curve.

The conditions of data set [5]: cited from earlier work.
Data set [6] in a line: Saturation solubility of crystalline OLA in 1% (w/v) polymer solutions. It counts as physicochemical. The following applies: 37 °C. As for the experimental part: as §1
Where [7] appears, read: male, Sprague Dawley, rat, plasma, po, mean ± S.D. (n = 6).

≈ marks a conversion by molar mass, not a printed value. Where two headings read alike, the source gives them in different places. Where only a bound is given, the exact number is not on record here.

One may read the solubility (kinetic) as the concentration staying in solution when a stock, usually in DMSO, is diluted into the medium. Broadly, the Cmax is the maximum level reached in the sampled fluid or tissue. By MRT is commonly meant a mean duration of stay, worked out from the concentration-time curve. One may read the Tmax as the time from dosing to the highest level. Take `O=C(c1cc(Cc2n[nH]c(=O)c3ccccc23)ccc1F)N1CCN(C(=O)C2CC2)CC1` [Amorphous OLA, olaparib]: the dissolution rate in data set [1] (pH 1.2, 1 h) is on record as 43.4 ± 3.3%; in data set [1] (pH 1.2, 72 h) it was 28.2 ± 3.9%; in data set [1] (pH 6.8, 1 h) it was 44.6 ± 3.1%; in data set [1] (pH 6.8, 72 h), 27.0 ± 3.0%. Also, in data set [2] (72 h), the saturation solubility entry is “around 100 µg/mL”. Besides, the solubility (kinetic) at 1 h in data set [3] (1% (w/v) HP-β-CD solution, aqueous with cosolvent or surfactant or cyclodextrin, 1% (w/v) HP-β-CD, 37 °C, read-out: kinetic solubility in HP-β-CD at 1 h) was found to be 337 ± 29.7 µg/mL (≈ 775 µM); in data set [3] (1% (w/v) HPMC P645 solution, 1% (w/v) HPMC P645, 37 °C, read-out: kinetic solubility in HPMC P645 at 1 h), 247 ± 43.6 µg/mL (≈ 569 µM); in data set [3] (1% (w/v) Kollidon VA64 solution, 1% (w/v) Kollidon VA64, 37 °C, read-out: kinetic solubility in Kollidon VA64 at 1 h), 593 ± 72.9 µg/mL (≈ 1360 µM). Also, the solubility (kinetic) at 72 h in data set [3] (1% (w/v) HP-β-CD solution, aqueous with cosolvent or surfactant or cyclodextrin, 1% (w/v) HP-β-CD, 37 °C, read-out: kinetic solubility in HP-β-CD at 72 h) was 398 ± 10.9 µg/mL (≈ 916 µM); in data set [3] (1% (w/v) HPMC P645 solution, 1% (w/v) HPMC P645, 37 °C, read-out: kinetic solubility in HPMC P645 at 72 h) it was 353 ± 44.2 µg/mL (≈ 813 µM); in data set [3] (1% (w/v) Kollidon VA64 solution, 1% (w/v) Kollidon VA64, 37 °C, read-out: kinetic solubility in Kollidon VA64 at 72 h) it was 343 ± 6.5 µg/mL (≈ 790 µM). The AUC0–24 in data set [4] stood at 471 ± 150 ng·h/mL; in data set [4] (mean ± S.D. (n = 6)), 471.40 ± 150.17 ng·h/mL. Further, the Cmax in data set [4] came out at 415 ± 148 ng/mL; in data set [4] (mean ± S.D. (n = 6)), 415.24 ± 148.20 ng/mL. Besides, the “increase of AUC0–24 over crystalline OLA” value in data set [4] (compared to crystalline OLA) is 1.27 fold. Further, the “increase of Cmax over crystalline OLA” value in data set [4] (compared to crystalline OLA) came out at 2.22 fold. In data set [4] (mean ± S.D. (n = 6)), this molecule showed a Kel of 0.20 ± 0.05 h⁻¹. Moreover, the mean residence time MRT in data set [4] (mean ± S.D. (n = 6)) is reported as 4.28 ± 4.52 h. Also, in data set [4] (mean ± S.D. (n = 6)), the T1/2 is on record as 3.68 ± 1.04 h. The Tmax in data set [4] (mean ± S.D. (n = 6)) was determined as 0.29 ± 0.10 h.

In general, half-life refers to the time in which the quantity being followed falls by half. A low value points to fast loss. As for `O=C(c1cc(Cc2n[nH]c(=O)c3ccccc23)ccc1F)N1CCN(C(=O)C2CC2)CC1` [Crystalline OLA, olaparib], the “solubility in aqueous solution” value in data set [5] (aqueous solution) was “approximately 0.1 mg/mL”. For the same molecule, the “basic pKa” value in data set [5] is listed as −1.25. Moreover, the “Biopharmaceutics Classification System (BCS) class” value in data set [5] (low solubility and low permeability) is “class IV”. In addition, the solubility at 72 h in data set [6] (crystalline OLA in 1% (w/v) HP-β-CD solution, read-out: saturation solubility in HP-β-CD) is approximately 180 µg/mL (≈ 414 µM); in data set [6] (crystalline OLA in 1% (w/v) polymer solutions other than HP-β-CD, read-out: saturation solubility in most other polymer solutions), less than 150 µg/mL; in data set [2] (aqueous pH solutions), approximately 100 µg/mL (≈ 230 µM). The same molecule had a half-life in data set [4] (setting [7]) of 4.18 ± 2.27 h. Besides, the k el in data set [4] (setting [7]) was 5.28e-05 s⁻¹. Besides, the AUC(0-t) in data set [4] (setting [7]) came out at 370 ± 63.8 ng·h/mL; in data set [4] (male, Sprague Dawley, rat, plasma, po), 370 ± 63.8 ng·h/mL. Also, the MRT in data set [4] (male, Sprague Dawley, rat, plasma, po, mean ± S.D. (n = 6), read-out: MRT) was 2.97 ± 0.69 h. Further, the Cmax in data set [4] was 187 ± 82.5 ng/mL; in data set [4] (mean ± S.D. (n = 6)), 187.31 ± 82.55 ng/mL. Also, the time to peak (Tmax) in data set [4] (mean ± S.D. (n = 6)) was determined as 0.63 ± 0.31 h.

The values are drawn from paper PMC11280475, “Investigation of Stabilized Amorphous Solid Dispersions to Improve Oral Olaparib Absorption” (Pharmaceutics, 2024).
